Measurements reported in patent US5922707A, “Oxazolidinone antibacterial agent with tricyclic substituents” (Pharmacia & Upjohn Company, priority 1997, dated 1999).

Tests used:
Assay type in all cases: cell-based
[1] = tested on: Staphylococcus aureus UC ® No. 9213; assay: In vitro antimicrobial activity, MIC by agar dilution, S. aureus 9213; conditions: UC9213, Mueller Hinton agar + 1% Supplement C, 35° C., 18 hours, read-out: Minimum inhibitory concentration (MIC), S. a. 9213
Protocol: (§1) Antimicrobial activity was tested in vitro using the procedure described in National Committee for Clinical Laboratory Standards. Methods for dilution antimicrobial susceptibility tests for bacteria that grow aerobically--third edition; Approved Standard. NCCLS Document M7-A3. Villanova, Pa.: NCCLS; 1993. Minimum inhibitory concentration (MIC) values were determined by an agar dilution method (1) in which the test medium was Mueller Hinton agar (MHA; Difco Laboratories, Detroit, Mich.) supplemented with 1% Supplement C (Difco). Serial two-fold dilutions of each compound were prepared using 1.0 ml volumes of sterile distilled water. To each 1.0 ml aliquot was added 9.0 ml of molten agar medium. The drug-supplemented agar was mixed, poured into 15×100 mm petri dishes, and allowed to solidify and dry at room temperature prior to inoculation. The test cultures were grown aerobically overnight at 35° C. on MHA; streptococcal strains were grown on Trypticase Soy Blood Agar Base EH (Difco) supplemented with 5% defibrinated sheep blood (BBL, Becton Dickinson Company, Cockeysville, Md.). Colonies were harvested with a sterile swab, and cell suspensions were prepared in Trypticase Soy Broth (TSB; Becton Dickinson Company) to equal the turbidity of a 0.5 McFarland standard. A 1:19 dilution of the suspension was made in TSB; this diluted suspension constituted the inoculum for the assay. The plates containing the drug-supplemented agar were inoculated with a 0.001 ml drop of the cell suspensions using a Steers replicator (Melrose Machine Shop, Woodlyn, Pa.), yielding approximately 10^4 -10^5 cells per spot. The plates were incubated aerobically at 35° C. for 18 hours and the MIC was read as the lowest concentration of drug that inhibited visible growth of the organism. The growth of a single colony was considered to be negative.

[2] = tested on: Staphylococcus aureus UC ® No. 6685; assay: In vitro antimicrobial activity, MIC by agar dilution, S. aureus 6685; conditions: UC6685, Mueller Hinton agar + 1% Supplement C, 35° C., 18 hours, read-out: Minimum inhibitory concentration (MIC), S. a. 6685
Protocol: as §1

[3] = tested on: Streptococcus Pneumoniae UC ® No. 9912; assay: In vitro antimicrobial activity, MIC by agar dilution, S. pneumoniae 9912; conditions: UC9912, Mueller Hinton agar + 1% Supplement C, 35° C., 18 hours, read-out: Minimum inhibitory concentration (MIC), S. p. 9912
Protocol: as §1

Question: How did the MIC [1] turn out when `CC(=O)NC[C@H]1CN(c2ccc3c(c2)OCC2CN(C(=O)OCc4ccccc4)CCN32)C(=O)O1` (stereo partly drawn) [Example 1, 8-[5-(S)-[(acetylamino)methyl]-2-oxo-3-oxazolidinyl]-1,2,4a, 5-tetrahydropyrazino[2,1-c] [1, 4]benzoxazine-3(4 H)-carboxylic acid phenylmethyl ester] was run?
Answer: 8 µg/mL

Question: What about the MIC [2] of the same compound?
Answer: 4 µg/mL

Question: What about the MIC [3] of the same compound?
Answer: 1 µg/mL

Question: Which results are given for `CC(=O)NC[C@H]1CN(c2ccc3c(c2)OCC2CN(C(=O)COCc4ccccc4)CCN32)C(=O)O1` (stereo partly drawn) [Example 2, N-[[3-[1,2,3,4,4a, 5-Hexahydro-3-[(phenylmethoxy)acetyl]pyrazino[2,1-c] [1, 4]benzoxazin-8-yl]-2-oxo-5-(S)-oxazolidinyl]methyl]-acetamide]?
Answer: MIC [1]: 8 µg/mL; MIC [2]: 8 µg/mL; MIC [3]: 2 µg/mL

Question: With `COC(=O)N1CCN2c3ccc(N4C[C@H](CNC(C)=O)OC4=O)cc3OCC2C1` (stereo partly drawn) [Example 3, 8-[5-(S)-[(Acetylamino)methyl]-2-oxo-3-oxazolidinyl]-1,2,4a, 5-tetrahydropyrazino[2,1-c] [1, 4]benzoxazine-3(4 H)-carboxylic acid methyl ester] as the compound, how does the MIC [1] read?
Answer: 8 µg/mL

Question: And the MIC [2]?
Answer: 4 µg/mL

Question: What about the MIC [3] of the same compound?
Answer: 1 µg/mL

Question: How did the MIC [1] turn out when `CC(=O)NC[C@H]1CN(c2ccc3c(c2)OCC2CN(C(=O)CO)CCN32)C(=O)O1` (stereo partly drawn) [Example 4] was run?
Answer: 8 µg/mL

Question: And the MIC [2]?
Answer: 8 µg/mL

Question: What about the MIC [3] of the same compound?
Answer: 1 µg/mL

Question: What does the source list for `CC(=O)NC[C@H]1CN(c2ccc3c(c2)OCC2CN(C(=O)c4ccno4)CCN32)C(=O)O1` (stereo partly drawn) [Example 5, N-[[3-[1,2,3,4,4a, 5-Hexahydro-3-(5-isoxazolylcarbonyl)pyrazino[2,1-c] [1, 4]benzoxazin-8-yl]-2-oxo-5-(S)-oxazolidinyl]methyl]-acetamide]?
Answer: MIC [1]: 4 µg/mL; MIC [2]: 2 µg/mL; MIC [3]: < 0.5 µg/mL

Question: How did the MIC [1] turn out when `CC(=O)NC[C@H]1CN(c2ccc3c(c2)OCC2CN(C(=O)c4cc5ccccc5[nH]4)CCN32)C(=O)O1` (stereo partly drawn) [Example 6, N-[[3-[1,2,3,4,4a, 5-hexahydro-3-(1 H-indol-2-ylcarbonyl)pyrazino[2,1-c] [1, 4]benzoxazin-8-yl]-2-oxo-5-(S)-oxazolidinyl]methyl]-acetamide] was run?
Answer: 8 µg/mL

Question: What about the MIC [2] of the same compound?
Answer: 4 µg/mL

Question: What about the MIC [3] of the same compound?
Answer: 1 µg/mL

Question: `CC(=O)NC[C@H]1CN(c2ccc3c(c2)OC[C@H]2CN(C(=O)OCc4ccccc4)CCN32)C(=O)O1` [Example 7a, (R)-8-[5-(S)-[(acetylamino)methyl]-2-oxo-3-oxazolidinyl]-1,2,4a, 5-tetrahydropyrazino[2,1-c][1,4]benzoxazin-3(4 H)-carboxylic acid phenylmethyl ester] was tested. Which MIC [1] did it give?
Answer: 8 µg/mL

Question: And the MIC [2]?
Answer: 4 µg/mL

Question: And the MIC [3]?
Answer: 1 µg/mL

Question: How did the MIC [1] turn out when `CC(=O)NC[C@H]1CN(c2ccc3c(c2)OC[C@@H]2CN(C(=O)OCc4ccccc4)CCN32)C(=O)O1` [Example 7b, (S)-8-[5-(S)-[(acetylamino)methyl]-2-oxo-3-oxazolidinyl]-1,2,4a, 5-tetrahydropyrazino[2,1-c][1,4]benzoxazin-3(4H)-carboxylic acid phenylmethyl ester] was run?
Answer: 8 µg/mL

Question: What about the MIC [2] of the same compound?
Answer: 8 µg/mL

Question: And the MIC [3]?
Answer: 2 µg/mL

Question: How did the MIC [1] turn out when `COC(=O)N1CCN2c3ccc(N4C[C@H](CNC(C)=O)OC4=O)cc3OC[C@H]2C1` [Example 8a, (R)-8-[5-(S)-[(acetylamino)methyl]-2-oxo-3-oxazolidinyl]-1,2,4a, 5-tetrahydropyrazino[2,1-c] [1, 4]benzoxazine-3(4 H)-carboxylic acid methyl ester] was run?
Answer: 4 µg/mL

Question: And the MIC [2]?
Answer: 4 µg/mL

Question: And the MIC [3]?
Answer: 0.5 µg/mL

Question: For `COC(=O)N1CCN2c3ccc(N4C[C@H](CNC(C)=O)OC4=O)cc3OC[C@@H]2C1` [Example 8b, (S)-8-[5-(S)-[(acetylamino)methyl]-2-oxo-3-oxazolidinyl]-1,2,4a, 5-tetrahydropyrazino[2,1-c] [1, 4]benzoxazine-3(4 H)-carboxylic acid methyl ester], which MIC [1] is on record?
Answer: 8 µg/mL

Question: What about the MIC [2] of the same compound?
Answer: 8 µg/mL

Question: And the MIC [3]?
Answer: 2 µg/mL

Question: `CC(=O)NC[C@H]1CN(c2ccc3c(c2)OC[C@H]2CCCCN32)C(=O)O1` [Example 9a, (R)-N-[[[1,2,3,4,4a, 5-hexahydropyridino[2,1-c][1, 4]benzoxazin-8-yl]-2-oxo-5-(S)-oxazolidinyl]methyl]-acetamide] was tested. Which MIC [1] did it give?
Answer: 16 µg/mL

Question: And the MIC [2]?
Answer: 8 µg/mL

Question: What about the MIC [3] of the same compound?
Answer: 2 µg/mL

Question: Which MIC [1] does the source give for `CC(=O)NC[C@H]1CN(c2ccc3c(c2)OC[C@@H]2CCCCN32)C(=O)O1` [Example 9b, (S)-N-[[[1,2,3,4,4a, 5-hexahydropyridino[2,1-c][1, 4]benzoxazin-8-yl]-2-oxo-5-(S)-oxazolidinyl]methyl]-acetamide] here?
Answer: 8 µg/mL

Question: And the MIC [2]?
Answer: 4 µg/mL

Question: And the MIC [3]?
Answer: 2 µg/mL
